{"source": "patent US20130266557A1", "about": "“METHODS FOR TREATMENT OF A SARCOMA USING AN EPIMETABOLIC SHIFTER (COENZYME Q10)” (priority 2009, published 2013)", "key": {"[1]": {"details": "cited from earlier work"}, "[2]": {"test_system": "Ewing's sarcoma (NCI)", "test": "Induction of early apoptosis by CoQ10", "type": "cell-based", "method": "(§1) The effects of Coenzyme Q10 treatment on a variety of oncogenic and normal cell lines were examined and compared. The sensitivity of cells to Coenzyme Q10 was assessed by monitoring induction of apoptosis. CoQ10 treatment of cells was carried out as described in detail below in the Materials and Methods. Induction of apoptosis was assessed in the treated cells by monitoring indicators of early apoptosis (e.g., Bcl-2 expression, caspase activation and by using annexin V assays) as described below. From these studies, the minimal CoQ10 dosage, e.g., concentration of CoQ10 and time of treatment, required to induce apoptosis in the panel of cell lines was determined.\n(§2) Cells were cultured in T-75 flasks with relevant medium supplemented with 10% Fetal Bovine Serum (FBS), 1% PSA (penicillin, streptomycin, amphotericin B) (Invitrogen and Cellgro) in a 37° C. incubator with 5% CO2 levels until 70-80% confluence was reached. To harvest cells for treatment, flasks were primed with 1 mL Trypsin, aspirated, trypsinized with an additional 3 mL, and incubated at 37° C. for 3-5 minutes. Cells were then neutralized with an equal volume of media and the subsequent solution was centrifuged at […] for 8 minutes. The supernatant was aspirated and the cells were resuspended with 8.5 ml of media. A mixture of 500 ul of the resuspension and 9.5 ml of […] was read twice by a coulter counter and the appropriate number of cells to be seeded into each dish was determined. Control and concentration ranging from 0-200 μM groups were examined in triplicate. From a 500 μM CoQ-10 stock solution, serial dilutions were performed to achieve desired experimental concentration in appropriate dishes. Dishes were incubated in a 37° C. incubator with 5% CO2 levels for 0-72 hours depending on cell type and experimental protocol.\n(§3) The volume of sample to load per well was determined using the raw mean concentration of protein obtained from the BCA protein assay. Approximately 30-60 μg of protein were loaded for each treatment time point. Proteins were run in triplicate on 12% Tris-HCl ready gels (Bio-Rad) or hand cast gels in 1× running buffer at 85 and 100 volts. Proteins were then transferred onto nitrocellulose paper for an hour at 100 volts, and blocked for another hour in a 5% milk solution. Membranes were placed in primary antibody (1 uL Ab:1000 uL TBST) (Cell Signaling) overnight at […] The following day, membranes were washed three times for ten minutes each with Tris-Buffered Saline Tween-20 (TBST), and secondary antibody (anti-rabbit; 1 uL Ab: 1000 uL TBST) was applied for an hour at […] Membranes were washed again three times for ten minutes with TBST and chemoluminescence using Pico or Femto substrate was completed (Pierce). Membranes were then developed at time intervals that produced the best visual results. After developing, membranes were kept in TBST at […] until Actin levels could be measured.\n(§4) Cells were washed twice in PBS10× and resuspended in Binding Buffer (0.1 M HEPES, pH 7.4; 1.4 M NaCl; 25 mM CaCl2). Samples of 100 μl were added to a culture tube with 5 μl of annexin-PE dye or […]. The cells were mixed and incubated without light at room temperature for 15 minutes. After which, 400 μl of 1×Binding Buffer was added to each sample and they were subjected to analysis by flow cytometry."}, "[3]": {"test_system": "Aortic smooth muscle (HASMC)", "test": "Induction of early apoptosis by CoQ10", "type": "cell-based", "details": "Heart: Aortic smooth muscle (HASMC)", "method": "as §1, §2, §3, §4"}, "[4]": {"test_system": "Melanoma (Skmel 28)", "test": "Induction of early apoptosis by CoQ10", "type": "cell-based", "method": "as §1, §2, §3, §4"}, "[5]": {"test_system": "ZR-75", "test": "Induction of early apoptosis by CoQ10", "type": "cell-based", "method": "as §1, §2, §3, §4"}, "[6]": {"test_system": "melanoma cell", "test": "Bcl2 level in the presence of VEGF", "type": "cell-based", "excerpt": "The term “Multidimensional Intracellular Molecule (MIM)”, is an isolated version or synthetically produced version of an endogenous molecule that is naturally produced by the body and/or is present in at least one cell of a human. A MIM is capable of entering a cell and the entry into the cell includes complete or partial entry into the cell as long as the biologically active portion of the molecule wholly enters the cell. MIMs are capable of inducing a signal transduction and/or gene expression mechanism within a cell. MIMs are multidimensional because the molecules have both a therapeutic and a carrier, e.g., drug delivery, effect. MIMs also are multidimensional because the molecules act one way in a disease state and a different way in a normal state."}, "[7]": {"test_system": "cancer patients", "details": "eight case histories, oral CoQ10; cited from earlier work"}, "[8]": {"test_system": "Ewing JDT cell line", "test": "Protein expression in Ewing JDT cell line", "type": "cell-based"}}, "note": "Read-outs that look alike come from different tables or passages of the source.", "data": [{"substance": "Coenzyme Q10 [CoQ10]", "values": [{"measurement": "Share of CoQ10 in the reduced form", "setting": "[1]; blood (plasma)", "value": "~96", "unit": "%"}, {"measurement": "Share of CoQ10 in the reduced form", "setting": "[1]; heart", "value": "about 61%"}, {"measurement": "Share of CoQ10 in the reduced form", "setting": "[1]; intenstine", "value": "~95", "unit": "%"}, {"measurement": "Share of CoQ10 in the reduced form", "setting": "[1]; kidney", "value": "~75", "unit": "%"}, {"measurement": "Share of CoQ10 in the reduced form", "setting": "[1]; liver", "value": "~95", "unit": "%"}, {"measurement": "Share of CoQ10 in the reduced form", "setting": "[1]; muscle", "value": "~65", "unit": "%"}, {"measurement": "Minimal CoQ10 Concentration required for induction of early apoptosis", "setting": "[2]", "value": 5, "unit": "µM"}, {"measurement": "Treatment Time required for induction of early apoptosis", "setting": "[2]", "value": 1, "unit": "h"}, {"measurement": "Indication of Early apoptosis (Bcl-2, annexin V, or caspase activation)", "setting": "[3]", "value": "None"}, {"measurement": "Minimal CoQ10 Concentration required for induction of early apoptosis", "setting": "[4]; Melanoma (Skmel 28)", "value": 20, "unit": "µM"}, {"measurement": "Treatment Time required for induction of early apoptosis", "setting": "[4]; Melanoma (Skmel 28)", "value": 24, "unit": "h"}, {"measurement": "Indication of Early apoptosis (Bcl-2, annexin V, or caspase activation)", "setting": "[4]; SKIN: Melanoma (Skmel 28)", "value": "Strong"}, {"measurement": "Indication of Early apoptosis (Bcl-2, annexin V, or caspase activation)", "setting": "[5]; BREAST: ZR-75", "value": "Slight"}, {"measurement": "Minimal CoQ10 Concentration required for induction of early apoptosis", "setting": "[5]; ZR-75", "value": 200, "unit": "µM"}, {"measurement": "Treatment Time required for induction of early apoptosis", "setting": "[5]; ZR-75", "value": 72, "unit": "h"}, {"measurement": "Level of Bcl2", "setting": "[6]", "value": "decreased level of Bcl2"}, {"measurement": "Survival of cancer patients on therapy with CoQ10", "setting": "[7]", "value": "5-15 years"}, {"measurement": "increase in Caspase 3 expression", "setting": "[8]; 100 μM CoQ10, within one hour after exposure", "value": 30, "unit": "%"}, {"measurement": "Caspase 3 expression", "setting": "[8]; one hour after CoQ10 treatment", "value": "significant increase"}, {"measurement": "p53 expression", "setting": "[8]; one hour after treatment with CoQ10", "value": "significant increase"}]}]}
